Laboratory results taken from patent publication US20130245081A1, “Compositions and Methods for Treating Amyotrophic Lateral Sclerosis” (priority 2009, published 2013).
Several values for one entry are separate records, joined by “and”; a condition that tells them apart may be missing. Equal entries are not always repeated. Where two headings read alike, the source gives them in different places.

System: patients with ALS
[1] = 50 mg, No Riluzole Use, through Week 28
[2] = 50 mg, Riluzole Use, through Week 28
[3] = 50 mg, double-blind treatment period
[4] = 50 mg, through the end of the study
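Note: adverse event data gathered at every clinic visit and phone contact, after first study drug dose, in a blinded trial, counts of affected subjects.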

CCCN[C@@H]1CCc2nc(N)sc2C1 [dexpramipexole, (6R)-2-amino-4,5,6,7-tetrahydro-6-(propylamino)benzothiazole]
subjects with increase from baseline in QTcF >30 msec (50 mg): Four
subjects with decrease in weight >7% from baseline (50 mg and 300 mg groups together, double-blind period): 30 subjects
AE: Anxiety [1]: 1 (4%) N (%)
AE: Constipation [1]: 4 (17%) N (%)
AE: Depression [1]: 4 (17%) N (%)
AE: Dry mouth [1]: 0 N (%)
AE: Dysarthria [1]: 1 (4%) N (%)
AE: Dyspnoea [1]: 3 (13%) N (%)
AE: Fall [1]: 6 (26%) N (%)
AE: Headache [1]: 1 (4%) N (%)
AE: Muscular weakness [1]: 7 (30%) N (%)
AE: Nausea [1]: 2 (9%) N (%)
AE: Oedema peripheral [1]: 4 (17%) N (%)
AE: Pharyngolaryngeal pain [1]: 1 (4%) N (%)
AE: Sinusitis [1]: 1 (4%) N (%)
AE: Upper respiratory tract infection [1]: 2 (9%) N (%)
AE: Urinary tract infection [1]: 1 (4%) N (%)
AE: Anxiety [2]: 1 (4%) N (%)
AE: Constipation [2]: 4 (16%) N (%)
AE: Depression [2]: 2 (8%) N (%)
AE: Dry mouth [2]: 1 (4%) N (%)
AE: Dysarthria [2]: 3 (12%) N (%)
AE: Dyspnoea [2]: 2 (8%) N (%)
AE: Fall [2]: 5 (20%) N (%)
AE: Headache [2]: 2 (8%) N (%)
AE: Muscular weakness [2]: 6 (24%) N (%)
AE: Nausea [2]: 2 (8%) N (%)
AE: Oedema peripheral [2]: 3 (12%) N (%)
AE: Pharyngolaryngeal pain [2]: 3 (12%) N (%)
AE: Sinusitis [2]: 1 (4%) N (%)
AE: Upper respiratory tract infection [2]: 3 (12%) N (%)
AE: Urinary tract infection [2]: 2 (8%) N (%)
incidence of ECGs with QTcB increased >30 msec from baseline (50 mg, any post-baseline visit): 17%
subjects with QTcF interval >450 msec (50 mg, any post-baseline visit): Two
AEs related to ALS as assessed by the Investigator [3]: 85%
subjects with prolonged QTcB [3]: 6 subjects
subjects with serum chemistry abnormalities of potential clinical significance [3]: 4 subjects
ALS-related TEAE: Affect liability (50 mg, through Week 28): 2 (4%) N (%)
ALS-related TEAE: Arthralgia (50 mg, through Week 28): 1 (2%) N (%)
ALS-related TEAE: Choking (50 mg, through Week 28): 2 (4%) N (%)
ALS-related TEAE: Constipation (50 mg, through Week 28): 4 (8%) N (%)
ALS-related TEAE: Contusion (50 mg, through Week 28): 1 (2%) N (%)
ALS-related TEAE: Dehydration (50 mg, through Week 28): 0 N (%)
ALS-related TEAE: Depression (50 mg, through Week 28): 1 (2%) N (%)
ALS-related TEAE: Disease progression (50 mg, through Week 28): 2 (4%) N (%)
ALS-related TEAE: Dysarthria (50 mg, through Week 28): 4 (8%) N (%)
ALS-related TEAE: Dysphagia (50 mg, through Week 28): 5 (10%) N (%)
ALS-related TEAE: Dysphasia (50 mg, through Week 28): 1 (2%) N (%)
ALS-related TEAE: Dyspnoea (50 mg, through Week 28): 4 (8%) N (%)
ALS-related TEAE: Dyspnoea exertional (50 mg, through Week 28): 0 N (%)
ALS-related TEAE: Fall (50 mg, through Week 28): 10 (21%) N (%)
ALS-related TEAE: Fatigue (50 mg, through Week 28): 3 (6%) N (%)
ALS-related TEAE: Gastrointestinal Disorders (50 mg, through Week 28): 16 (33%) N (%)
ALS-related TEAE: General Disorders and Administration Site Conditions (50 mg, through Week 28): 8 (17%) N (%)
ALS-related TEAE: Increased upper airway secretion (50 mg, through Week 28): 1 (2%) N (%)
ALS-related TEAE: Injury, Poisoning and Procedural Complications (50 mg, through Week 28): 10 (21%) N (%)
ALS-related TEAE: Investigations (50 mg, through Week 28): 3 (6%) N (%)
ALS-related TEAE: Metabolism and Nutrition Disorders (50 mg, through Week 28): 1 (2%) N (%)
ALS-related TEAE: Muscle contractions involuntary (50 mg, through Week 28): 3 (6%) N (%)
ALS-related TEAE: Muscle spasticity (50 mg, through Week 28): 5 (10%) N (%)
ALS-related TEAE: Muscle twitching (50 mg, through Week 28): 1 (2%) N (%)
ALS-related TEAE: Muscular weakness (50 mg, through Week 28): 12 (25%) N (%)
ALS-related TEAE: Musculoskeletal and Connective Tissue Disorders (50 mg, through Week 28): 19 (40%) N (%)
ALS-related TEAE: Musculoskeletal pain (50 mg, through Week 28): 1 (2%) N (%)
ALS-related TEAE: Myalgia (50 mg, through Week 28): 2 (4%) N (%)
ALS-related TEAE: Neck pain (50 mg, through Week 28): 1 (2%) N (%)
ALS-related TEAE: Nervous System Disorders (50 mg, through Week 28): 11 (23%) N (%)
ALS-related TEAE: Oedema peripheral (50 mg, through Week 28): 3 (6%) N (%)
ALS-related TEAE: Pain in extremity (50 mg, through Week 28): 2 (4%) N (%)
ALS-related TEAE: Psychiatric Disorders (50 mg, through Week 28): 2 (4%) N (%)
ALS-related TEAE: Respiratory failure (50 mg, through Week 28): 4 (8%) N (%)
ALS-related TEAE: Respiratory, Thoracic and Mediastinal Disorders (50 mg, through Week 28): 11 (23%) N (%)
ALS-related TEAE: Salivary hypersecretion (50 mg, through Week 28): 8 (17%) N (%)
ALS-related TEAE: Vital capacity decreased (50 mg, through Week 28): 2 (4%) N (%)
ALS-related TEAE: Weight decreased (50 mg, through Week 28): 0 N (%)
Number of TEAEs (50 mg, through Week 28): 277
Number of serious TEAEs (50 mg, through Week 28): 15
Number of serious treatment-related TEAE (50 mg, through Week 28): 1
Number of severe TEAEs (50 mg, through Week 28): 17
Number of treatment-related TEAEs (50 mg, through Week 28): 35
TEAE: Anxiety (50 mg, through Week 28): 2 (4%) N (%)
TEAE: Arthralgia (50 mg, through Week 28): 2 (4%) N (%)
TEAE: Cardiac Disorders (50 mg, through Week 28): 2 (4%) N (%)
TEAE: Constipation (50 mg, through Week 28): 8 (17%) N (%)
TEAE: Cough (50 mg, through Week 28): 1 (2%) N (%)
TEAE: Dehydration (50 mg, through Week 28): 1 (2%) N (%)
TEAE: Depression (50 mg, through Week 28): 6 (13%) N (%)
TEAE: Dizziness (50 mg, through Week 28): 0 N (%)
TEAE: Dry mouth (50 mg, through Week 28): 2 N (%) and 1 (2%) N (%)
TEAE: Dysarthria (50 mg, through Week 28): 4 (8%) N (%)
TEAE: Dysphagia (50 mg, through Week 28): 5 (10%) N (%)
TEAE: Dyspnoea (50 mg, through Week 28): 5 (10%) N (%)
TEAE: Fall (50 mg, through Week 28): 11 (23%) N (%)
TEAE: Fatigue (50 mg, through Week 28): 3 (6%) N (%)
TEAE: Gastrointestinal Disorders (50 mg, through Week 28): 21 (44%) N (%)
TEAE: General Disorders and Administration Site Conditions (50 mg, through Week 28): 14 (29%) N (%)
TEAE: Headache (50 mg, through Week 28): 3 (6%) N (%)
TEAE: Hyperglycaemia (50 mg, through Week 28): 0 N (%)
TEAE: Infections and Infestations (50 mg, through Week 28): 21 (44%) N (%)
TEAE: Injury, Poisoning and Procedural Complication (50 mg, through Week 28): 15 (31%) N (%)
TEAE: Insomnia (50 mg, through Week 28): 0 N (%)
TEAE: Metabolism and Nutrition Disorders (50 mg, through Week 28): 6 (13%) N (%)
TEAE: Muscle contractions involuntary (50 mg, through Week 28): 3 (6%) N (%)
TEAE: Muscle spasticity (50 mg, through Week 28): 5 (10%) N (%)
TEAE: Musculoskeletal and Connective Tissue Disorders (50 mg, through Week 28): 22 (46%) N (%)
TEAE: Musculoskeletal pain (50 mg, through Week 28): 2 (4%) N (%)
TEAE: Nausea (50 mg, through Week 28): 4 (8%) N (%)
TEAE: Neck pain (50 mg, through Week 28): 1 (2%) N (%)
TEAE: Nervous System Disorders (50 mg, through Week 28): 16 (33%) N (%)
TEAE: Pharyngolaryngeal pain (50 mg, through Week 28): 4 (8%) N (%)
TEAE: Pneumonia (50 mg, through Week 28): 3 (6%) N (%)
TEAE: Pruritus (50 mg, through Week 28): 3 (6%) N (%)
TEAE: Psychiatric Disorders (50 mg, through Week 28): 9 (19%) N (%)
TEAE: Rash (50 mg, through Week 28): 2 (4%) N (%)
TEAE: Respiratory failure (50 mg, through Week 28): 4 (8%) N (%)
TEAE: Respiratory, Thoracic and Mediastinal Disorders (50 mg, through Week 28): 17 (35%) N (%)
TEAE: Salivary hypersecretion (50 mg, through Week 28): 8 (17%) N (%)
TEAE: Sinusitis (50 mg, through Week 28): 2 (4%) N (%)
TEAE: Skin and Subcutaneous Tissue Disorders (50 mg, through Week 28): 14 (29%) N (%)
TEAE: Tachycardia (50 mg, through Week 28): 1 (2%) N (%)
TEAE: Upper respiratory tract infection (50 mg, through Week 28): 5 (10%) N (%)
TEAE: Urinary tract infection (50 mg, through Week 28): 3 (6%) N (%)
TEAE: Vomiting (50 mg, through Week 28): 3 (6%) N (%)
serious TEAE: Acute myocardial infarction (50 mg, through Week 28): 1 (2%) N (%)
serious TEAE: Atrial fibrillation (50 mg, through Week 28): 0 N (%)
serious TEAE: Blood and Lymphatic System Disorders (50 mg, through Week 28): 0 N (%)
serious TEAE: Cardiac Disorders (50 mg, through Week 28): 1 (2%) N (%)
serious TEAE: Cardiac failure congestive (50 mg, through Week 28): 1 (2%) N (%)
serious TEAE: Cholecystitis acute (50 mg, through Week 28): 0 N (%)
serious TEAE: Concussion (50 mg, through Week 28): 0 N (%)
serious TEAE: Disease progression (50 mg, through Week 28): 1 (2%) N (%)
serious TEAE: Dyspnoea (50 mg, through Week 28): 1 (2%) N (%)
serious TEAE: Fall (50 mg, through Week 28): 0 N (%)
serious TEAE: Gastrointestinal Disorders (50 mg, through Week 28): 1 (2%) N (%)
serious TEAE: General Disorders and Administration Site Conditions (50 mg, through Week 28): 2 (4%) N (%)
serious TEAE: Hepatobiliary Disorders (50 mg, through Week 28): 0 N (%)
serious TEAE: Ileus (50 mg, through Week 28): 1 (2%) N (%)
serious TEAE: Infections and Infestations (50 mg, through Week 28): 3 (6%) N (%)
serious TEAE: Injury, Poisoning and Procedural Complications (50 mg, through Week 28): 0 N (%)
serious TEAE: Neutropenia (50 mg, through Week 28): 0 N (%)
serious TEAE: Pneumonia (50 mg, through Week 28): 1 (2%) N (%)
serious TEAE: Pneumonia aspiration (50 mg, through Week 28): 0 N (%)
serious TEAE: Pneumonia bacterial (50 mg, through Week 28): 1 (2%) N (%)
serious TEAE: Pulmonary embolism (50 mg, through Week 28): 1 (2%) N (%)
serious TEAE: Respiratory distress (50 mg, through Week 28): 1 (2%) N (%)
serious TEAE: Respiratory failure (50 mg, through Week 28): 4 (8%) N (%)
serious TEAE: Respiratory, Thoracic and Mediastinal Disorders (50 mg, through Week 28): 5 (10%) N (%)
serious TEAE: Subdural haematoma (50 mg, through Week 28): 0 N (%)
serious TEAE: Sudden death (50 mg, through Week 28): 1 (2%) N (%)
serious TEAE: Viral infection (50 mg, through Week 28): 1 (2%) N (%)
≧1 TEAE with an outcome of death (50 mg, through Week 28): 7 N (%) and 7 (15%) N (%)
≧1 serious TEAE (including death) (50 mg, through Week 28): 11 N (%) and 11 (23%) N (%)
≧1 serious treatment-related TEAE (50 mg, through Week 28): 1 (2%) N (%)
≧1 severe TEAE (50 mg, through Week 28): 12 (25%) N (%) and 12 N (%)
Number of TEAEs [4]: 333
Number of serious TEAEs [4]: 18
Number of serious treatment-related TEAEs [4]: 1
Number of severe TEAEs [4]: 20
Number of treatment-related TEAEs [4]: 39
Subjects with a TEAE with action taken of study drug discontinued [4]: 2 N (%) and 2 (4%) N (%)
subjects with TEAEs with an outcome of death (b230 count) [4]: 7 subjects
≧1 TEAE with an outcome of death [4]: 7 N (%) and 7 (15%) N (%)
≧1 serious TEAE (including death) [4]: 14 N (%) and 14 (29%) N (%)
